Here are results for one compound from patent US20040097408A1, “Compounds regulating cell proliferation and differentiation” (priority 2001, published 2004).

The test system of data set [1] is A6 cells. Briefly: electron-microscopy analysis of mitochondria. It is filed as cell-based, mouse. The conditions noted are these: 3 μM F16, abnormalities evident as early as 15 hr. As to the method:
(§1) Electron-microscopy analysis was performed on untreated or F16-treated A6 cells, control cells and tumor cell lines SH1.1 and SMF to search for potential mitochondria lesions due to F16 accumulation. Cells grown in 35 mm dishes were left untreated or treated with 3 μM F16 for the indicated times, and fixed for 1 hr at room temperature in 0.1 M Cacodylate buffer containing 1.25% formaldehyde, 2.5% glutaraldehyde and 0.3% picric acid. Samples were then treated with 1% osmiuntetroxide/1.5% potassiumferrocyanide, followed by 1% uranyl acetate, dehydrated and epon-araldite embedded. Ultrathin sections were examined using a JEOL 1200EX microscope.

Another data set relates to control cells. The data set can be described thus: electron-microscopy analysis of mitochondria. It is filed as cell-based, mouse. The note with it: 3 μM F16. As to the method: as §1
Data set [2] has as its system F16-resistant normal mammary epithelial and human cancer cell lines. The data set can be described thus: F16 accumulation in the presence of MDR-1 and MRP1 inhibitors. It is filed as cell-based. The conditions noted are these: 3 μM F16 with 50 μM verapamil/1 mM probenecid. The source says:
To evaluate the effect of multi-drug resistance pumps on the F16-insensitive cells, inhibitors of MDR-1 and MRP1 were utilized (Lizardet al. (1994) Cell Biol Toxicol (10) 399-406).

In data set [3] the test system is kidney, heart and liver samples. The data set can be described thus: pathology examination of kidney, liver and heart. It is filed as in vivo, mouse. The note with it: four F16 treated and four placebo mice. The text has this:
All the tumors from the twenty mice as well as kidney, liver and heart samples from four placebo and four F16 treated mice were sent for pathology examination. […] Necrosis probably results from the lack of sufficient blood supply to these fast growing tumors.

Data set [4] has as its system A6 cells. The data set can be described thus: apoptosis time course (DNA fragmentation, propidium iodide staining, cytochrome c release). It is filed as cell-based, mouse. The conditions noted are these: 3 μM F16, 48, 60 and 72 hr, FIG. 6. As to the method: The DNA fragmentation assay was conducted by isolating DNA from 1×10^6 of untreated or F16 treated for 48, 60 and 72 hr using Suicide-Track TM (Oncogene) according to manufacturer's procedure. Samples were resolved by agarose gel electrophoresis and ethidium-bromide stained. Cytochrome c release was measured by immunofluorescence as follows. Untreated or F16-treated A6 cells were washed and fixed with ice-cold 3.7% paraformaldehyde at RT, permeabilized for with ice-cold 0.01% (v/v) Nonidet P-40 for 20 min and incubated with 0.5% BSA/PB. Immunodetection was performed with monoclonal anti-cytochrome c antibody (PharMingen) and secondary anti-mouse-TRITC conjugated antibody. Cells were photographed under Axioskop using a Spot Camera (Diagnostic Instruments).

The test system of data set [5] is isolated mouse liver mitochondria. Briefly: swelling of isolated mitochondria (permeability transition pore opening). It is filed as biochemical. The note with it: 0.5 mg/ml mitochondria.
Data set [6] has the same test system. The data set can be described thus: mitochondrial oxygen consumption (Clarke-type oxygen electrode). It is filed as biochemical. As to the method: Mitochondria were isolated from liver of Balb/c7 mice by standard differential centrifugation, and resuspended in isolation buffer (0.2 M sucrose, 10 mM Tris-MOPS pH 7.4, 0.1 mM EGTA-Tris, 0.1% delipidated BSA) (Costantini et al. (1995) Toxicology (99) 77-88). Protein concentration was determined by Bradford assay. For swelling determination, changes in side scatter at 545±2.5 nm of a 0.5 mg/ml suspension of mitochondria in experimental buffer (125 mM KCl, 10 mM Tris-MOPS pH 7.4, 1 mM Pi, 5 mM glutamate, 2.5 mM malate, 10 μM EGTA-Tris, pH 7.4) were monitored by using LS-50B spectrofluorimeter. To monitor changes in mitochondrial membrane potential, the intrinsic potentiometric properties of F16 were used. Mitochondria (0.5 mg/ml) were incubated in experimental buffer with the indicated concentrations of F16 and changes in F16 fluorescence intensity were measured, using a LS-50B spectrofluorimeter at 25° C., with excitation and emission wavelengths set at 415±2.5 nm and 520±5 nm, respectively. […]
The mechanism of PTP induction by F16 was further investigated as follows. […] First, the effects of F16 were measured on basal (state 4) and uncoupled mitochondrial respiration as follows. Oxygen consumption was determined using a Clarke-type oxygen electrode equipped with thermostatic control and magnetic stirring. […]

The test system of data set [7] is β-catenin-initiated mouse breast tumor cell lines.

`C[n+]1ccc(/C=C/c2c[nH]c3ccccc23)cc1.[I-]` [F16]: the mitochondrial ultrastructure entry in the data set with A6 cells [1] is “progressive swelling and disruption of mitochondrial integrity”; in the data set on control cells it was “no abnormalities in mitochondria morphology”. Also, in data set [2], the “F16 mitochondrial accumulation with MDR-1/MRP1 inhibitors” value is recorded as “did not result in F16 mitochondrial accumulation”. The “pathology of kidney, heart and liver samples versus placebo” value in data set [3] is “no major differences”. Moreover, the “cell death on prolonged incubation” value in the data set with A6 cells [4] is on record as “increased cell death”. Also, the “swelling of purified mitochondria” value in data set [5] is recorded as “swelling of purified mitochondria in a dose-dependent fashion”. The uncoupled mitochondrial respiration entry in data set [6] is reported as “inhibits uncoupled respiration”. Further, the “state 4 (basal) mitochondrial oxygen consumption” value in data set [6] (substrates for complexes I and II+III) is “increase in state 4 of mitochondrial oxygen consumption”. The “selectivity for β-catenin-initiated mouse breast tumor cell lines” value in data set [7] is “to some extent selectivity”.
